pIC50, pKi: −log10 of the molar value.
Assays:
inflammatory cells = assay: Ovalbumine model, histology of peri-vascular and peri-bronchiolar regions; type: in vivo, BALB/c mice; conditions: ovalbumine-exposed mice; nebulization 5 mM 30 min
Method: In this long-term experiment, 6-8 week old BALB/c female mice were sensitized on days 1 and 8 by intra-peritoneal injection (i.p.) of ovalbumine (10 μg) (Sigma-Aldrich, Schnelldorf, Germany) adsorbed to 2 mg aluminum hydroxide (AlumInject; Perbio, Erembodegem, Belgium). Mice were divided into three groups. In Group 1, a control group was only exposed to saline nebulization by aerosol. The other 2 groups were subjected to ovalbumine (1%) nebulization. Before each challenge with ovalbumine, mice were either exposed to saline nebulization (Group 2) or KMUP-1 nebulization (5 mM) for 30 min by aerosol (Group 3).
Sections of fixed embedded tissues were cut at […], placed on glass slides, deparaffinized and stained sequentially with hematoxylin 2 and eosin-Y (MUTO PURE CHEMICALS CO., LTD., Tokyo, Japan) (Tournoy K G, et al., 2000). To confirm the relationship between vascular inflammation/remodeling and expression of proteins, lung tissue sections from ovalbumine experiments were prepared and stained with hematoxylin-eosin as previously described (Hongo M, et al., 2000). Microphotography analysis of blood vessels and bronchioles, focusing on peri-bronchial and peri-vascular region in the lung sections, was performed using a color digital camera mounted on a computer-interfaced light microscope (Eclipse TE2000-S microscope, Nikon, Tokyo, Japan).

5-HT2B receptor = target: T1, 5-HT2B receptor (Homo sapiens, UniProt P41595); assay: Displacement of radioligand binding, 5-HT2B
T1 construct: full length clones of 5-HT2A, 5-HT2B and 5-HT2C receptor were prepared from CHO-K1 cells; expressed in transfected cells; host or cells: CHO-K1
T1 sequence (P41595 whole entry): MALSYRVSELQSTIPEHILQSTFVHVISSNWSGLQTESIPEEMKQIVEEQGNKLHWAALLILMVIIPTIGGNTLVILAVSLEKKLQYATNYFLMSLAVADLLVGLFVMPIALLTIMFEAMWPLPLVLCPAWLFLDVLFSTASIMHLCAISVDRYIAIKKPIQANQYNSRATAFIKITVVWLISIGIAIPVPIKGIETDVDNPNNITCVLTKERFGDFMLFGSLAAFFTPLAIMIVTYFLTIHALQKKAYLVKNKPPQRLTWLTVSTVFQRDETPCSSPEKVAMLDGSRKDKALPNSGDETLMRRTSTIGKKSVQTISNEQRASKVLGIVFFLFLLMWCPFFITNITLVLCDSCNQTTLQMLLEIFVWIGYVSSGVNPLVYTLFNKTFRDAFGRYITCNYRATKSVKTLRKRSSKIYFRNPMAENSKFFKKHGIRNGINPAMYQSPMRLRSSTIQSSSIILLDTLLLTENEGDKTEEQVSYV
Method: Displacement of Radioligand Binding Assay
As described previously, full length clones of 5-HT2A, 5-HT2B and 5-HT2C receptor were prepared from CHO-K1 cells. […] IC50 represents the concentration of competing ligand which displaces 50% of the specific binding of the radioligand. Ki values for competition curves were calculated using the Cheng-Prusoff equation (Cheng, 2001).

SMILES: Cn1c(=O)c2c(ncn2CCN2CCN(c3ccccc3Cl)CC2)n(C)c1=O [KMUP-1, 7-[2-[4-(2-chlorophenyl)piperazinyl]ethyl]-1,3-dimethylxanthine]
- inflammatory cells in the peri-vascular and peri-bronchiolar regions (inflammatory cells): marked reductions
- ligand specificity of 5-HT2B receptor versus 5-HT2A and 5-HT2C receptors (5-HT2B receptor): more selective
- pIC50 (5-HT2B receptor; [^3H]-LSD, human recombinant CHO-K1 cells): 7.40
- pKi (5-HT2B receptor; [^3H]-LSD, human recombinant CHO-K1 cells, Cheng-Prusoff): 7.60

Reference: patent US20130095059A1, “INHALED NO DONOR KMUPS DERIVATIVE PREVENTING ALLERGIC PULMONARY VASCULAR AND BRONCHIAL INFLAMMATION VIA SUPPRESSED CYTOKINES, INOS AND INFLAMMATORY CELL COUNTS IN ASTHMA MODEL” (priority 2007, published 2013)
